In patent publication US8853193B2, “Thienopyrimidines containing a substituted alkyl group for pharmaceutical compositions” (Boehringer Ingelheim International GmbH, priority 2010, dated 2014):
Counter-ions that a name gives are not always drawn.

Biological target: human Mnk2a (Homo sapiens (Human), UniProt Q9HBH9)
Assay: Mnk2a in vitro kinase assay (indirect competitive fluorescence polarization)
Format: biochemical
Settings: pre-activated GST-Mnk2a 2.5 nM, 20 μM ATP, 30 μM substrate peptide; read-out: MNK2 IC50
Protocol: Inhibitory potency of compounds against Mnk1, Mnk2a and other kinases was assessed with assays based on a format known to those skilled in the art as the indirect (competitive) fluorescence polarization. The assay detection system comprises a small fluorophore-labeled phospho-peptide (termed ligand) bound to a phospho-specific antibody. The product generated by the kinase reaction competes with the ligand for antibody binding. Based on the larger molecular volume of the bound ligand, which results in a lower rotation rate in solution, its emitted light has a higher degree of polarization than the one from the free ligand.
In brief, the open reading frames of human Mnk1 and Mnk2a were amplified from cDNA using the forward/reverse primer pairs
(utilized restriction sites underlined), respectively, and cloned into the BamHI and SalI sites of the vector pGEX-4T1 (Amersham, Sweden, cat. no. 27-4580-01). These constructs allow prokaryotic expression of Mnk1 or Mnk2a as fusion protein with a N-terminal glutathione S-transferase (GST) tag, referred to as GST-Mnk1 or GST-Mnk2a. The following expression and purification procedure was identical for GST-Mnk1 and GST-Mnk2a, referring in general to GST-Mnk, when not distinguishing between the two isoforms. Expression of GST-Mnk was in E. coli BL21 (Merck Biosciences, Germany, cat. no. 69449). Cells were grown in LB-Bouillon (Merck, Germany, cat. no. 1.10285) supplemented with 100 μg/ml ampicillin (Sigma, Germany, cat. no. A9518) at 37° C. […] Cells harvested by centrifugation were resuspended in 10 ml lysis buffer (50 mM tris(hydroxymethyl)aminomethane hydrochloride (Tris/HCl, Sigma, Germany, cat. no. T5941) pH 7.5, 300 mM sodium chloride (NaCl, Sigma, Germany, cat. no. S7653), 5% (w/v) glycerol (Sigma, Germany, cat. no. G5516), 3 mM DTT dithiotreitol (DTT, Sigma, Germany, cat. no. D9779)) per gram wet weight cell pellet. Lysates were prepared by disruption of cells with a sonifier and subsequent clearing by centrifugation at 38000 g for 45 min at 4° C.
The lysate was applied to a GSTPrep FF 16/10 column (Amersham, Sweden, cat. no. 17-5234-01) equilibrated with lysis buffer. Removal of unbound material was with 3 column volumes (CV) lysis buffer. Elution was with 2 CV of elution buffer (50 mM Tris/HCl pH 7.5, 300 mM NaCl, 5% (w/v) glycerol, 20 mM glutathione (Sigma, Germany, cat. no. G4251)). Peak fractions were pooled and the protein transferred into storage buffer (50 mM Tris/HCl pH 7.5, 200 mM NaCl, 0.1 mM ethylene glycol[…] bis(2-aminoethylether)-N,N,N′,N′-tetraacetic acid (EGTA, Aldrich, Germany, cat. no. 23, 453-2), 1 mM DTT, 10% (w/v) glycerol, 0.5 M sucrose (Sigma, Germany, cat. no. S0389) by gel filtration on a PD10 desalting column (Amersham, Sweden, cat. no. 17-0851-01). Aliquots were shock frozen in liquid nitrogen and stored at −80° C.
Activation of Mnk1 and Mnk2a was at a concentration of 2.5 μM of either purified GST-Mnk1 or GST-Mnk2a by incubation with 150 nM pre-activated NHis-ERK2 (see ERK2 assay for preparation) and 50 μM adenosine triphosphate (ATP, Sigma, cat. no. A2699) in a buffer comprising 20 mM N-(2-hydroxyethyl)piperazine-N′-(2-ethanesulfonic acid) (HEPES, Fluka, Germany, cat. no 54459)/potassium hydroxide (KOH, Roth, Germany, cat. no 6751.1) pH 7.4, 10 mM magnesium chloride (MgCl2, Sigma, Germany, cat. no. M2670), 0.25 mM DTT, 0.05% (w/v) polyoxyethylene 20 stearylether (Brij 78, Sigma, Germany, cat. no. P4019) (HMDB buffer) for 45 min at 30° C. After the incubation, the preparation was aliquoted into single-use samples, shock frozen in liquid nitrogen, stored at −80° C. and utilized for Mnk1 or Mnk2a kinase assays as detailed below.
The serine residue phosphorylated by Mnk kinases is underlined.

human Mnk2a, sequence (Q9HBH9 whole entry): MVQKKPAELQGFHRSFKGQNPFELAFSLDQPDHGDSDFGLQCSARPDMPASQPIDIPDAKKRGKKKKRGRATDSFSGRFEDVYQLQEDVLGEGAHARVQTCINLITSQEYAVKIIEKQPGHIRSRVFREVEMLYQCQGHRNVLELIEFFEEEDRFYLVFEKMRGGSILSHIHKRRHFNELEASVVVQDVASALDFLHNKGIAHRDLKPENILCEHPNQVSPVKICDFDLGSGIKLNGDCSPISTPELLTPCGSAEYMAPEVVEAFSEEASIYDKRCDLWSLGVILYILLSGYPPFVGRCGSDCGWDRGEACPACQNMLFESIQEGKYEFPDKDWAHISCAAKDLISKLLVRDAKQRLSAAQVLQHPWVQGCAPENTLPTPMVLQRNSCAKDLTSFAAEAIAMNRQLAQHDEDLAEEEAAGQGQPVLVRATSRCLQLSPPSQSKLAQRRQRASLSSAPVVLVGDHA

Row | Compound | IC50 [nM]
1 | Cc1c(C(N)=O)sc2ncnc(Nc3ccc(F)cc3O[C@@H](C)CNC(=O)OC(C)(C)C)c12 (racemic) [Compound 6-1, (R) and (S)-tert-butyl 2-(2-(6-carbamoyl-5-methyl-thieno[2,3-d]pyrimidin-4-ylamino)-5-fluorophenoxy)propylcarbamate] | 164
2 | Cc1c(C(N)=O)sc2ncnc(Nc3ccc(F)cc3O[C@@H](C)CN)c12 (racemic) [Compound 6-2, (R) and (S)-4-(2-(1-aminopropan-2-yloxy)-4-fluorophenylamino)-5-methylthieno[2,3-d]pyrimidine-6-carboxamide trifluoroacetate] | 90
3 | Cc1c(C(=O)N[C@@H]2C[C@H]2N)sc2ncnc(Nc3ccc(F)cc3OC(CF)CF)c12 (relative stereo) [Compound 25, N-((trans)-2-Aminocyclopropyl)-4-(2-(1,3-difluoropropan-2-yloxy)-4-fluorophenylamino)-5-methylthieno[2,3-d]pyrimidine-6-carboxamide hydrochloride] | 12
4 | Cc1c(C(=O)O)sc2ncnc(Nc3ccc(F)cc3OC(C)CNC(=O)OC(C)(C)C)c12 (stereo not shown) [Compound 1-2, 4-(2-(1-(tert-Butoxycarbonylamino)propan-2-yloxy)-4-fluorophenylamino)-5-methyl-thieno[2,3-d]pyrimidine-6-carboxylic acid] | 52
5 | CNC(=O)c1sc2ncnc(Nc3ccc(F)cc3OC(C)CNC(=O)OC(C)(C)C)c2c1C (stereo not shown) [Compound 1-3, tert-Butyl 2-(5-fluoro-2-(5-methyl-6-(methylcarbamoyl)thieno[2,3-d]pyrimidin-4-ylamino)phenoxy)propylcarbamate] | 342
6 | Cc1c(C(=O)NCCCN(C)C)sc2ncnc(Nc3ccc(F)cc3OC(C)CNC(=O)OC(C)(C)C)c12 (stereo not shown) [Compound 1-4, tert-Butyl 2-(2-(6-(3-(dimethymino)propyl-carbamoyl)-5-methyl-thieno[2,3-d]pyrimidin-4-ylamino)-5-fluoro-phenoxy)propyl-carbamate] | 294
7 | Cc1c(C(=O)NCCO)sc2ncnc(Nc3ccc(F)cc3OC(C)CNC(=O)OC(C)(C)C)c12 (stereo not shown) [Compound 1-5, tert-Butyl 2-(5-fluoro-2-(6-(2-hydroxyethyl-carbamoyl)-5-methylthieno[2,3-d]-pyrimidin-4-yl-amino)-phenoxy)propyl-carbamate] | 459
8 | COC(=O)c1sc2ncnc(Nc3ccc(F)cc3OC(C)CN)c2c1C (stereo not shown) [Compound 2-1, Methyl 4-(2-(1-aminopropan-2-yloxy)-4-fluorophenylamino)-5-methyl-thieno[2,3-d]pyrimidine-6-carboxylate trifluoroacetate] | 70
9 | Cc1c(C(=O)NCCCN(C)C)sc2ncnc(Nc3ccc(F)cc3OC(C)CN)c12 (stereo not shown) [Compound 2-2, 4-(2-(1-Amino-propan-2-yloxy)-4-fluorophenylamino)-N-(3-(diemthyl-amino)propyl)-5-methylthieno[2,3-d]pyrimidine-6-carboxamide bis(trifloroacetate)] | 41
10 | Cc1c(C(=O)NCCO)sc2ncnc(Nc3ccc(F)cc3OC(C)CN)c12 (stereo not shown) [Compound 2-3, 4-(2-(1-Amino-propan-2-yloxy)-4-fluorophenylamino)-N-(2-hydroxy-ethyl)-5-methyl-thieno[2,3-d]-pyrimidine-6-carboxamide] | 50
11 | CNC(=O)c1sc2ncnc(Nc3ccc(F)cc3OC(C)CN)c2c1C (stereo not shown) [Compound 2-4, 4-(2-(1-Amino-propan-2-yloxy)-4-fluorophenylamino)-N-5-methyl-thieno[2,3-d]-pyrimidin-6-carboxamide trifluoroacetate] | 23
12 | COC(=O)c1sc2ncnc(Nc3ccc(F)cc3OC(C)CNS(C)(=O)=O)c2c1C (stereo not shown) [Compound 3-1, Methyl 4-(4-fluoro-(2-(1-methylsulfonamido)propan-2-yloxy)phenylamino)-5-methyl-thieno[2,3-d]pyrimidine-6-carboxylate] | 41
13 | COC(=O)c1sc2ncnc(Nc3ccc(F)cc3OC(C)CNS(=O)(=O)C(C)C)c2c1C (stereo not shown) [Compound 3-2, Methyl 4-(4-fluoro-2-(1-(1-methylethylsulfon-amino)propan-2yloxy)-phenylamino)-5-methyl-thieno[2,3-d]pyrimidine-6-carboxylate] | 204
14 | Cc1c(C(=O)NCCCN(C)C)sc2ncnc(Nc3ccc(F)cc3OC(C)CNS(C)(=O)=O)c12 (stereo not shown) [Compound 3-3] | 18
15 | COC(=O)c1sc2ncnc(Nc3ccc(F)cc3OC(C)CNC(C)=O)c2c1C (stereo not shown) [Compound 3-4, Methyl 4-(2-(1-acet-amidopropan-2-yloxy)-4-fluorophenylamino)-5-methylthieno[2,3-d]pyrimidine-6-carboxylate] | 261
16 | COC(=O)c1sc2ncnc(Nc3ccc(F)cc3OC(C)CNC(=O)C(C)C)c2c1C (stereo not shown) [Compound 3-5, Methyl 4-(4-fluoro2-(1-isobutyramidopropan-2-yloxy)phenylamino)-5-methylthieno[2,3-d]-pyrimidine-6-carboxylate] | 443
17 | COC(=O)c1sc2ncnc(Nc3ccc(F)cc3OC(C)CN(C)C)c2c1C (stereo not shown) [Compound 4, Methyl 4-(2-(1-dimethylamino)propan-2yloxy)-4-fluorophenylamino)-5-methyl-thieno[2,3-d]pyrimidine-6-carboxylate trifluoroacetate] | 3140
18 | Cc1c(C(N)=O)sc2ncnc(Nc3ccc(F)cc3OC(C)CNC(=O)OC(C)(C)C)c12 (stereo not shown) [Compound 5, tert-Butyl 2-(2-(6-carbamoyl-5-methyl-thieno[2,3-d]pyrimidin-4-ylamino)-5-fluorophenoxy)propylcarbamate] | 230
19 | Cc1c(C(=O)O)sc2ncnc(Nc3ccc(F)cc3OC(C)CN)c12 (stereo not shown) [Compound 7, 4-(2-(1-Aminopropan-2-yloxy)-4-fluorophenylamino)-5-methyl-thieno[2,3-d]pyrimidine-6-carboxylic acid trifluoroacetate] | 14
20 | Cc1c(C(N)=O)sc2ncnc(Nc3ccc(F)cc3OC(C)CNCCC(F)(F)F)c12 (stereo not shown) [Compound 8-2] | 64
21 | COC(=O)c1sc2ncnc(Nc3ccc(F)cc3OCCN)c2c1C [Compound 9-2, Methyl 4-(2-(2-aminoethoxy)-4-fluorophenylamino)-5-methyl-thieno[2,3-d]pyrimidine-6-carboxylate hydrochloride] | 577
22 | CCC(CN)Oc1cc(F)ccc1Nc1ncnc2sc(C(=O)OC)c(C)c12 (stereo not shown) [Compound 10-2, Methyl 4-(2-(1-aminobutan-2yloxy)-4-fluorophenylamino)-5-methyl-thieno[2,3-d]pyrimidine-6-carboxylate hydrochloride] | 229
23 | COC(=O)c1sc2ncnc(Nc3cccnc3OC(C)CN)c2c1C (stereo not shown) [Compound 11-2, Methyl 4-(2-(1-aminopropan-2yloxy)-pyridin-3-ylamino)-5-methyl-thieno[2,3-d]pyrimidine-6-carboxylate hydrochloride] | 418
24 | COC(=O)c1sc2ncnc(Nc3ccc(F)cc3OC(C)CCN)c2c1C (stereo not shown) [Compound 12, Methyl 4-(2-(4-aminobutan-2yloxy)-4-fluorophenylamino)-5-methyl-thieno[2,3-d]pyrimidine-6-carboxylate hydrochloride] | 52
25 | COC(=O)c1sc2ncnc(Nc3ccc(F)cc3OC(C)CCNS(C)(=O)=O)c2c1C (stereo not shown) [Compound 13, Methyl 4-(4-fluoro-2-(4-(methylsulfonamido)butan-2yloxy)phenylamino)-5-methyl-thieno[2,3-d]pyrimidine-6-carboxylate] | 90
